Assay results reported in PubChem BioAssay (NCI).
“And” between values parts separate entries of the source, which are not always exact repeats. Equal entries are not always repeated.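 Step 1: Grow cells in 96-well plates. Step 2: Expose to compound for 48 hours at 5 concentrations. Step 3: Interpolate endpoints linearly; if unreached, use highest concentration. Abbreviation: GI50, concentration required for 50% inhibition of growth. TGI denotes the concentration required for complete inhibition of growth.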

Experiments:
Experiment in all cases: DTP human tumour cell line panel, 48 h
XF 498 CNS = system: XF 498 CNS
TK-10 renal = system: TK-10 renal
SW-620 colon = system: SW-620 colon
CCRF-CEM leukemia = system: CCRF-CEM leukemia
DMS 114 small cell lung = system: DMS 114 small cell lung
HOP-18 NSCLC = system: HOP-18 NSCLC
SNB-78 CNS = system: SNB-78 CNS
SF-268 CNS = system: SF-268 CNS
EKVX NSCLC = system: EKVX NSCLC
NCI-H460 lung = system: NCI-H460 lung
RXF 393 renal = system: RXF 393 renal
KM20L2 colon = system: KM20L2 colon
UACC-257 melanoma = system: UACC-257 melanoma
SF-539 CNS = system: SF-539 CNS
CAKI-1 renal = system: CAKI-1 renal
SK-MEL-5 melanoma = system: SK-MEL-5 melanoma
HL-60(TB) leukemia = system: HL-60(TB) leukemia
NCI-H23 lung = system: NCI-H23 lung
HCC-2998 colon = system: HCC-2998 colon
LXFL 529 NSCLC = system: LXFL 529 NSCLC
HCT-116 colon = system: HCT-116 colon
OVCAR-8 ovarian = system: OVCAR-8 ovarian
DMS 273 small cell lung = system: DMS 273 small cell lung
786-0 renal = system: 786-0 renal
DLD-1 colon = system: DLD-1 colon
UACC-62 melanoma = system: UACC-62 melanoma
COLO 205 colon = system: COLO 205 colon
OVCAR-5 ovarian = system: OVCAR-5 ovarian
ACHN renal = system: ACHN renal
OVCAR-3 ovarian = system: OVCAR-3 ovarian
MALME-3M melanoma = system: MALME-3M melanoma
SK-OV-3 ovarian = system: SK-OV-3 ovarian
A498 renal = system: A498 renal
NCI-H522 lung = system: NCI-H522 lung
M19-MEL melanoma = system: M19-MEL melanoma
SK-MEL-28 melanoma = system: SK-MEL-28 melanoma
HT29 colon = system: HT29 colon
K-562 leukemia = system: K-562 leukemia
MOLT-4 leukemia = system: MOLT-4 leukemia
SNB-75 CNS = system: SNB-75 CNS
OVCAR-4 ovarian = system: OVCAR-4 ovarian
RXF-631 renal = system: RXF-631 renal
SNB-19 CNS = system: SNB-19 CNS
SK-MEL-2 melanoma = system: SK-MEL-2 melanoma
SF-295 CNS = system: SF-295 CNS
M14 melanoma = system: M14 melanoma
KM12 colon = system: KM12 colon
LOX IMVI melanoma = system: LOX IMVI melanoma
SN12C renal = system: SN12C renal
IGROV1 ovarian = system: IGROV1 ovarian
NCI-H226 lung = system: NCI-H226 lung
A549 NSCLC = system: A549 NSCLC
U251 CNS = system: U251 CNS
HCT-15 colon = system: HCT-15 colon
RPMI-8226 leukemia = system: RPMI-8226 leukemia
UO-31 renal = system: UO-31 renal
SR leukemia = system: SR leukemia
HOP-92 NSCLC = system: HOP-92 NSCLC
HOP-62 NSCLC = system: HOP-62 NSCLC

COC1OC(COC(C)=O)C(OC(C)=O)C(OC(C)=O)C1NC(=O)N(CCCl)N=O (stereo unspecified)
TGI (XF 498 CNS): > 100 µM | TGI (TK-10 renal): > 100 µM | TGI (SW-620 colon): > 100 µM | GI50 (CCRF-CEM leukemia): 15.2 µM and 90.3 µM | TGI (CCRF-CEM leukemia): > 100 µM | TGI (DMS 114 small cell lung): > 100 µM | TGI (HOP-18 NSCLC): > 100 µM | TGI (SNB-78 CNS): > 100 µM | TGI (SF-268 CNS): > 100 µM | TGI (EKVX NSCLC): > 100 µM | TGI (NCI-H460 lung): > 100 µM | TGI (RXF 393 renal): > 100 µM | TGI (KM20L2 colon): > 100 µM | TGI (UACC-257 melanoma): > 100 µM | GI50 (SF-539 CNS): > 100 µM and 24.7 µM | TGI (SF-539 CNS): > 100 µM and 91.7 µM | TGI (CAKI-1 renal): > 100 µM | TGI (SK-MEL-5 melanoma): > 100 µM | TGI (HL-60(TB) leukemia): 74 µM and > 100 µM | TGI (NCI-H23 lung): > 100 µM | TGI (HCC-2998 colon): > 100 µM | TGI (LXFL 529 NSCLC): > 100 µM | TGI (HCT-116 colon): > 100 µM | TGI (OVCAR-8 ovarian): > 100 µM | TGI (DMS 273 small cell lung): > 100 µM | TGI (786-0 renal): > 100 µM | TGI (DLD-1 colon): > 100 µM | TGI (UACC-62 melanoma): > 100 µM | TGI (COLO 205 colon): > 100 µM | TGI (OVCAR-5 ovarian): > 100 µM | TGI (ACHN renal): > 100 µM | TGI (OVCAR-3 ovarian): > 100 µM | TGI (MALME-3M melanoma): > 100 µM | TGI (SK-OV-3 ovarian): > 100 µM | TGI (A498 renal): > 100 µM | TGI (NCI-H522 lung): > 100 µM | TGI (M19-MEL melanoma): > 100 µM | TGI (SK-MEL-28 melanoma): > 100 µM | TGI (HT29 colon): > 100 µM | TGI (K-562 leukemia): > 100 µM | GI50 (MOLT-4 leukemia): 26.2 µM and > 100 µM | TGI (MOLT-4 leukemia): > 100 µM | TGI (SNB-75 CNS): > 100 µM | TGI (OVCAR-4 ovarian): > 100 µM | TGI (RXF-631 renal): > 100 µM | TGI (SNB-19 CNS): > 100 µM | TGI (SK-MEL-2 melanoma): > 100 µM | TGI (SF-295 CNS): > 100 µM | TGI (M14 melanoma): > 100 µM | TGI (KM12 colon): > 100 µM | TGI (LOX IMVI melanoma): > 100 µM | TGI (SN12C renal): > 100 µM | TGI (IGROV1 ovarian): > 100 µM | TGI (NCI-H226 lung): > 100 µM | TGI (A549 NSCLC): > 100 µM

CNc1ccccc1-c1nc2ccccc2c(=O)o1
TGI (XF 498 CNS): > 100 µM | TGI (TK-10 renal): > 100 µM | TGI (SW-620 colon): > 100 µM | TGI (CCRF-CEM leukemia): > 100 µM | TGI (DMS 114 small cell lung): > 100 µM | TGI (HOP-18 NSCLC): > 100 µM | TGI (SNB-78 CNS): > 100 µM | TGI (SF-268 CNS): > 100 µM | TGI (EKVX NSCLC): > 100 µM | TGI (NCI-H460 lung): > 100 µM | TGI (KM20L2 colon): > 100 µM | TGI (UACC-257 melanoma): > 100 µM | TGI (U251 CNS): > 100 µM | TGI (SF-539 CNS): > 100 µM | TGI (CAKI-1 renal): > 100 µM | TGI (SK-MEL-5 melanoma): > 100 µM | TGI (HL-60(TB) leukemia): > 100 µM | TGI (HCT-15 colon): > 100 µM | TGI (HCC-2998 colon): > 100 µM | TGI (LXFL 529 NSCLC): > 100 µM | TGI (HCT-116 colon): > 100 µM | TGI (OVCAR-8 ovarian): > 100 µM | TGI (DMS 273 small cell lung): > 100 µM | TGI (RPMI-8226 leukemia): > 100 µM | TGI (DLD-1 colon): > 100 µM | TGI (COLO 205 colon): > 100 µM | TGI (UO-31 renal): > 100 µM | TGI (OVCAR-5 ovarian): > 100 µM | TGI (ACHN renal): > 100 µM | TGI (MALME-3M melanoma): > 100 µM | TGI (SK-OV-3 ovarian): > 100 µM | TGI (M19-MEL melanoma): > 100 µM | TGI (SK-MEL-28 melanoma): > 100 µM | TGI (K-562 leukemia): > 100 µM | TGI (SR leukemia): > 100 µM | TGI (MOLT-4 leukemia): > 100 µM | TGI (SNB-75 CNS): 97.6 µM | TGI (OVCAR-4 ovarian): > 100 µM | TGI (RXF-631 renal): > 100 µM | TGI (SNB-19 CNS): > 100 µM | TGI (SK-MEL-2 melanoma): > 100 µM | TGI (SF-295 CNS): > 100 µM | TGI (M14 melanoma): > 100 µM | TGI (KM12 colon): > 100 µM | TGI (LOX IMVI melanoma): > 100 µM | TGI (SN12C renal): > 100 µM | TGI (IGROV1 ovarian): > 100 µM | TGI (NCI-H226 lung): > 100 µM | TGI (A549 NSCLC): > 100 µM

Clc1cccc(Cl)c1C1SCc2nc3ccccc3n21 (stereo unspecified)
TGI (XF 498 CNS): > 100 µM | TGI (TK-10 renal): > 100 µM | TGI (SW-620 colon): > 100 µM | TGI (CCRF-CEM leukemia): > 100 µM | TGI (DMS 114 small cell lung): > 100 µM | TGI (HOP-18 NSCLC): > 100 µM | TGI (SNB-78 CNS): > 100 µM | TGI (SF-268 CNS): > 100 µM | TGI (EKVX NSCLC): > 100 µM | TGI (NCI-H460 lung): > 100 µM | TGI (RXF 393 renal): > 100 µM | TGI (KM20L2 colon): > 100 µM | TGI (UACC-257 melanoma): > 100 µM | TGI (U251 CNS): > 100 µM | TGI (SF-539 CNS): > 100 µM | TGI (CAKI-1 renal): > 100 µM | TGI (SK-MEL-5 melanoma): 67 µM | TGI (HOP-92 NSCLC): > 100 µM | TGI (HL-60(TB) leukemia): > 100 µM | TGI (HCT-15 colon): > 100 µM | TGI (NCI-H23 lung): > 100 µM | TGI (HCC-2998 colon): > 100 µM | TGI (LXFL 529 NSCLC): > 100 µM | TGI (HCT-116 colon): > 100 µM | TGI (OVCAR-8 ovarian): > 100 µM | TGI (DMS 273 small cell lung): > 100 µM | TGI (786-0 renal): > 100 µM | TGI (RPMI-8226 leukemia): > 100 µM | TGI (DLD-1 colon): > 100 µM | TGI (UACC-62 melanoma): > 100 µM | TGI (COLO 205 colon): > 100 µM | TGI (UO-31 renal): > 100 µM | TGI (OVCAR-5 ovarian): > 100 µM | TGI (ACHN renal): > 100 µM | TGI (OVCAR-3 ovarian): > 100 µM | TGI (MALME-3M melanoma): > 100 µM | TGI (SK-OV-3 ovarian): > 100 µM | TGI (A498 renal): > 100 µM | TGI (HOP-62 NSCLC): > 100 µM | TGI (NCI-H522 lung): > 100 µM | TGI (M19-MEL melanoma): > 100 µM | TGI (HT29 colon): > 100 µM | TGI (K-562 leukemia): > 100 µM | TGI (SR leukemia): > 100 µM | TGI (MOLT-4 leukemia): > 100 µM | TGI (SNB-75 CNS): > 100 µM | TGI (OVCAR-4 ovarian): > 100 µM | TGI (RXF-631 renal): 41.7 µM | TGI (SNB-19 CNS): > 100 µM | TGI (SF-295 CNS): > 100 µM | TGI (M14 melanoma): > 100 µM | TGI (KM12 colon): > 100 µM | TGI (LOX IMVI melanoma): > 100 µM | TGI (SN12C renal): > 100 µM | TGI (IGROV1 ovarian): > 100 µM | TGI (NCI-H226 lung): > 100 µM | TGI (A549 NSCLC): > 100 µM
